System: Trypanosoma brucei
Assay: ALAMARBLUE cell viability / growth assay of T. brucei cells
Type: cell-based
Conditions: T. brucei, 72 hours, normalized to DMSO control
Description: To determine cell growth rate, WT and two TbRPA1 RNAi KD strains (KD1 and KD2) were seeded at a density of 1×10^5 cells/ml and cultured with or without tetracycline for the induction of RNAi. Cells were counted every 12 hours for 2 days. To determine the viability of TbRPA1-depleted cells, ALAMARBLUE® assay (Thermo Fisher, an established colorimetric technique that detects metabolically active cells) was used. Cells from each time point were incubated with ALAMARBLUE® dye for 4-6 hours and percentage of live cells was determined by measuring resorufin converted from resazurin by reducing environment of live cells. Synergy H1 microplate reader (BioTek) was used with 560/590 nm (excitation/emission) filter settings and Relative Fluorescence Unit (RFU) values were obtained. The percentage of viable cells were calculated from the RFU values.
The initial assessment of JC-229's inhibitory effect on T. brucei cell growth was performed at 50 μM concentration. Trypanosome cells were seeded at 1×10^3 cells/ml density in 180 μl in a 96-well culture plate in triplicate. These cells were incubated with 50 μM JC-229 for 24, 48, and 72 hours. DMSO was used as a vehicle control at 0.0075%. JC-229-treated culture and control cultures were analyzed with the ALAMARBLUE® dye as described above.
To obtain the EC50 value of JC-229, T. brucei cells were seeded at 1×10^3 cells/ml density in 180 μl in a 96-well culture plate in triplicate. These cells were incubated for 72 hours with increasing concentrations of JC-229, (0.5 μM to 50 μM) and cell viability was determined using the ALAMARBLUE® dye as described above.
Trypanosoma brucei cytotoxicity of JC-229 and analogs were measured using ALAMARBLUE® assay (Rampersad, S. N. Multiple applications of ALAMARBLUE® as an indicator of metabolic function and cellular health in cell viability bioassays. Sensors (Basel) 12, 12347-12360 (2012). Trypanosome cells were seeded at 1×10^3 cells/ml density in 180 μl in a 96-well culture plate in triplicate. These cells were incubated with indicated concentration of JC compounds for 72 hours. DMSO was used as a vehicle control at 0.0075%. JC compound-treated cultures were then incubated with ALAMARBLUE® dye for 4-6 hours and percentage of live cells was determined using Synergy H1 microplate reader (BioTek) with 560/590 nm (excitation/emission) filter settings and Relative Fluorescence Unit (RFU) values were obtained. The percentage of viable cells were calculated from the RFU values by normalizing to DMSO treated control. In one embodiment, the inhibitor is characterized in that it provides at least 50%, at least 80% or at least 90% inhibition at a concentration of 5 μM when tested in accordance with the above conditions.

Structure (SMILES)	% Inhibition @2 μM (2 μM) [%]	% Inhibition @10 μM [%]	% Inhibition @5 μM (5 μM) [%]	inhibition at 2 µM (Trypanosoma brucei, 2 μM) [%]	inhibition at 5 µM (Trypanosoma brucei, 5 μM) [%]
Cc1ccc(C(=O)N[C@H](Cc2ccccc2)C(N)=O)cc1S(=O)(=O)Nc1ccc(Cl)c(Cl)c1 [JC-861]	5	4			
Cc1ccc(C(=O)Nc2ccc(Cl)c(Cl)c2)cc1S(=O)(=O)NCCNS(=O)(=O)c1cccc(F)c1 [JC-996]	−19		69		
Cc1ccc(C(=O)Nc2ccc(Cl)c(Cl)c2)cc1S(=O)(=O)N1CCC(N)CC1.O=C(O)C(F)(F)F [JC-906]	23	100	100		
Cc1ccc(C(=O)Nc2ccc(Cl)c(Cl)c2)cc1S(=O)(=O)N1CCC(NC(=O)Cc2ccccc2)CC1 [JC-967]	15		−24		
Cc1ccc(C(=O)Nc2ccc(Cl)c(Cl)c2)cc1S(=O)(=O)n1c(CN)nc2ccccc21.O=C(O)C(F)(F)F [JC-904]	14	2			
Cc1ccc(C(=O)Nc2ccc(Cl)c(Cl)c2)cc1S(=O)(=O)N(CCCCO)Cc1ccccc1 [JC-891]	13	100	88.8		
Cc1ccc(C(=O)Nc2ccc(Cl)c(Cl)c2)cc1S(=O)(=O)N1CCC(NC(=S)Nc2cccc(C(F)(F)F)c2)CC1 [JC-1017]	100		100		
Cc1ccc(C(=O)Nc2ccc(Cl)c(Cl)c2)cc1S(=O)(=O)N1CCC(NS(=O)(=O)c2cccc(F)c2)CC1 [JC-1012]	36		97		
Cc1ccc(C(=O)Nc2ccc(Cl)c(Cl)c2)cc1S(=O)(=O)Nc1cc(C(F)(F)F)n[nH]1 [JC-874]	1	97	51.8		
Cc1ccc(C(=O)Nc2ccc(Cl)c(Cl)c2)cc1S(=O)(=O)Nc1cccc([N+](=O)[O-])c1N [JC-899]	3	14			
Cc1ccc(C(=O)NCCN(C)C)cc1S(=O)(=O)Nc1ccc(Cl)c(Cl)c1.O=C(O)C(F)(F)F [JC-863]	−40	2			
Cc1ccc(C(=O)Nc2ccc(Cl)c(Cl)c2)cc1S(=O)(=O)N1CCC(NS(=O)(=O)c2ccc(Br)cc2)CC1 [JC-1014]	100		100		
Cc1ccc(C(=O)Nc2ccc(Cl)c(Cl)c2)cc1S(=O)(=O)NCCO [JC-872]	−13	21			
Cc1ccc(C(=O)Nc2ccc(Cl)c(Cl)c2)cc1S(=O)(=O)C1CCCN(C(=O)OC(C)(C)C)C1 (centres unmarked) [Jc-950]	28		3		
Cc1ccc(C(=O)Nc2ccc(Cl)c(Cl)c2)cc1S(=O)(=O)NCCNC(=S)Nc1cccc(C(F)(F)F)c1 [JC-1000]	21		58		
Cc1ccc(C(=O)Nc2ccc(Cl)c(Cl)c2)cc1S(=O)(=O)NCCCN.O=C(O)C(F)(F)F [JC-933]	5	60			
Cc1ccc(C(=O)Nc2ccc(Cl)c(Cl)c2)cc1S(=O)(=O)NCCN(C)C [JC-871]	−3	79			
O=C(Nc1ccc(Cl)c(Cl)c1)c1ccc(Br)c(S(=O)(=O)Nc2ccc(Cl)c(Cl)c2)c1 [JC-855]	−5	89			
Cc1ccc(S(=O)(=O)Nc2ccc(Cl)c(Cl)c2)cc1C(=O)Nc1ccc(Cl)c(Cl)c1 [JC-858]	13	100	86		
Cc1ccc(C(=O)NCCc2ccccc2)cc1S(=O)(=O)Nc1ccc(Cl)c(Cl)c1 [JC-859]	13	9			
Cc1ccc(C(=O)Nc2ccc(Cl)c(Cl)c2)cc1S(=O)(=O)Nc1nc2ccccc2[nH]1 [JC-873]	−4	100	1		
Cc1ccc(C(=O)Nc2ccc(Cl)c(Cl)c2)cc1S(=O)(=O)NC(CO)(CO)CO [JC-893]	2	−5			
Cc1ccc(C(=O)Nc2ccc(Cl)c(Cl)c2)cc1S(=O)(=O)C1CCCNC1.O=C(O)C(F)(F)F (centres unmarked) [JC-951]	29		100		

Structure (SMILES)	% Inhibition @2 μM (2 μM) [%]	% Inhibition @10 μM [%]	% Inhibition @5 μM (5 μM) [%]	inhibition at 2 µM (Trypanosoma brucei, 2 μM) [%]	inhibition at 5 µM (Trypanosoma brucei, 5 μM) [%]
Cc1ccc(C(=O)Nc2ccc(Cl)c(Cl)c2)cc1S(=O)(=O)NNc1ccccc1 [JC-868]	1	20			
Cc1ccc(C(=O)Nc2ccc(Cl)c(Cl)c2)cc1S(=O)(=O)N1CCC(F)(F)CC1 [JC-886]	3	100	93.7		
Cc1ccc(C(=O)Nc2ccc(Cl)c(Cl)c2)cc1S(=O)(=O)N1CCCC(N)C1.O=C(O)C(F)(F)F (centres unmarked) [JC-959]	64		100		
Cc1ccc(C(=O)Nc2ccc(Cl)c(Cl)c2)cc1S(=O)(=O)N1CCCC(NC(=S)Nc2ccc(F)cc2)C1 (centres unmarked) [JC-965]	64		100		
Cc1ccc(C(=O)Nc2ccc(Cl)c(Cl)c2)cc1S(=O)(=O)Nc1cc[nH]n1 [JC-902]	14	56			
Cc1ccc(C(=O)Nc2ccc(Cl)c(Cl)c2)cc1S(=O)(=O)C1CCCC(NC(=O)OC(C)(C)C)C1 (centres unmarked) [JC-954]	10		35		
Cc1ccc(C(=O)Nc2ccc(Cl)c(Cl)c2)cc1S(=O)(=O)N1CCCC(NS(C)(=O)=O)C1 (centres unmarked) [JC-964]	−16		−23		
Cc1ccc(C(=O)Nc2ccc(Cl)c(Cl)c2)cc1S(=O)(=O)NCCc1ccccc1 [JC-854]	−27	14			
Cc1ccc(C(=O)Nc2ccc(Cl)c(Cl)c2)cc1S(=O)(=O)NCCOCCO [JC-890]	4	37			
Cc1ccc(C(=O)Nc2ccc(Cl)c(Cl)c2)cc1S(=O)(=O)NCc1nc2ccccc2[nH]1.O=C(O)C(F)(F)F [JC-905]	8	10			
Cc1ccc(C(=O)Nc2ccc(Cl)c(Cl)c2)cc1S(=O)(=O)N1CCN(C)CC1 [JC-916]	−2	36			
Cc1ccc(C(=O)Nc2ccc(Cl)c(Cl)c2)cc1S(=O)(=O)N1CCC(NC(=S)Nc2ccccc2F)CC1 [JC-1018]	100		100		
Cc1ccc(C(=O)Nc2ccc(Cl)c(Cl)c2)cc1S(=O)(=O)N1CCCC(NC(=O)OC(C)(C)C)C1 (centres unmarked) [JC-928]	15	100	99.6		
Cc1ccc(C(=O)Nc2ccc(Cl)c(Cl)c2)cc1S(=O)(=O)Nc1ccncc1 [JC-915]	−11	6			
Cc1ccc(C(=O)Nc2ccc(Cl)c(Cl)c2)cc1S(=O)(=O)N1CCC(NC(=S)Nc2ccc(F)cc2)CC1 [JC-970]				100	100
COc1ccc(NC(=S)NCCNS(=O)(=O)c2cc(C(=O)Nc3ccc(Cl)c(Cl)c3)ccc2C)cc1 [JC-999]	−7		−6		
Cc1ccc(C(=O)Nc2ccc(Cl)c(Cl)c2)cc1S(=O)(=O)Nc1ccc([N+](=O)[O-])cc1N [JC-892]	13	1			
Cc1ccc(C(=O)Nc2ccc(Cl)c(Cl)c2)cc1S(=O)(=O)NCCNC(=O)c1ccccc1 [JC-920]	−5	−9			
Cc1ccc(C(=O)Nc2ccc(Cl)c(Cl)c2)cc1S(=O)(=O)Nc1cc(C(C)C)n[nH]1 [JC-888]	16	100	62.1		
Cc1ccc2c(NS(=O)(=O)c3cc(C(=O)Nc4ccc(Cl)c(Cl)c4)ccc3C)cccc2n1 [JC-913]	2	6			
Cc1ccc(C(=O)Nc2ccc(Cl)c(Cl)c2)cc1S(=O)(=O)NC1CC(NC(=O)OC(C)(C)C)C1 (centres unmarked) [JC-956]	−32		19		
Cc1ccc(C(=O)Nc2ccc(Cl)c(Cl)c2)cc1S(=O)(=O)NCCNC(=S)Nc1ccc(Cl)c(Cl)c1 [JC-1002]	34		100		
